From ChEMBL document CHEMBL1151502, “New base-altered adenosine analogues: Synthesis and affinity at adenosine A1 and A2A receptors” (Bioorg Med Chem Lett, 1997)

Assays:
[1] = target: Adenosine receptor A2a (Rattus norvegicus) (UniProt P30543); assay: Displacement of [3H]-CGS- 21680 from Adenosine A2 receptor in rat striatal membranes at 10e-4 M; assay type: cell membranes; conditions: Membrane
Adenosine receptor A1 = target: T1, Adenosine receptor A1 (Rattus norvegicus, UniProt P25099); assay: Binding affinity at Adenosine A1 receptor in rat brain membranes by [3H](R)-PIA displacement.; assay type: cell membranes
T1 sequence (P25099 whole entry): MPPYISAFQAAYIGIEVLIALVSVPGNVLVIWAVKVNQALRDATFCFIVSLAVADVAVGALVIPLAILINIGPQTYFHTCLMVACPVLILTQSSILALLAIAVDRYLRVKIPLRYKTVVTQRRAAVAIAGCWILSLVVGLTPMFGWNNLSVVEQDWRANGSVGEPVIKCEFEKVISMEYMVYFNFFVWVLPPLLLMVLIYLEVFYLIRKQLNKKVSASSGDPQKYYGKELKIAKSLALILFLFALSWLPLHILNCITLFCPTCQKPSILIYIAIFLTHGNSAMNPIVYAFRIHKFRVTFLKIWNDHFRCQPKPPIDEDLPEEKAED

Adenosine receptor A2a = Adenosine receptor A2a (Rattus norvegicus, UniProt P30543); assay: Displacement of [3H]-CGS- 21680 from Adenosine A2 receptor of rat striatal membranes; assay type: cell membranes, Membrane
Sequence of Adenosine receptor A2a (P30543 whole entry): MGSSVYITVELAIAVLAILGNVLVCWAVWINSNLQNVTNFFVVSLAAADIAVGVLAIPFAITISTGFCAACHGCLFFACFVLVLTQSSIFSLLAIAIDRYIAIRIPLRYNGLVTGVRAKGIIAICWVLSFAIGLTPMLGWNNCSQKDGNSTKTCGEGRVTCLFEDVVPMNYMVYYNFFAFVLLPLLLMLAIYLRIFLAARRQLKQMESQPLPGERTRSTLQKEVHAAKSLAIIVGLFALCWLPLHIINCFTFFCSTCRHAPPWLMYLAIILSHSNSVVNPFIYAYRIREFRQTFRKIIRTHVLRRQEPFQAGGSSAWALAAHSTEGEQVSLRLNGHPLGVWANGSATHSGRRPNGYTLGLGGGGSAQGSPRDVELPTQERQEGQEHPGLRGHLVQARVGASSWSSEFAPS

[2] = target: Adenosine receptors; A1 & A2a (Rattus norvegicus) (UniProt P25099+P30543); assay: Selective ratio of A1 receptor to A2A receptor; assay type: protein assay
Sequence of Adenosine receptors; A1 & A2a (Rattus norvegicus) (P30543 whole entry, looked up, one chain of several): as the sequence (P30543 whole entry) above

[3] = target: Adenosine receptor A1 (Rattus norvegicus) (UniProt P25099); assay: Binding affinity for Adenosine A1 receptor
[4] = target: Adenosine receptor A2a (Rattus norvegicus) (UniProt P30543); assay: Displacement of [3H]-CGS- 21680 from Adenosine A2 receptor in rat striatal membranes at 10e-5 M; assay type: cell membranes; conditions: Membrane

Sequence of Adenosine receptor A2a (Rattus norvegicus) (P30543 whole entry): as above

SMILES | Ki (Adenosine receptor A1) [nM] | Ki (Adenosine receptor A2a) [nM] | further results
OC[C@H]1OC(n2cnc3c(NN4CCOCC4)ncnc32)[C@H](O)[C@@H]1O (stereo not given in full) | 15500 |  | Displacement [1]: 36%
OC[C@H]1O[C@@H](n2cnc3c(NN4CCCCC4)nc(Cl)nc32)[C@H](O)[C@@H]1O | 3.55 | 936 | 
CC(C)C[C@H](CO)Nc1ncnc2c1ncn2C1O[C@H](CO)[C@@H](O)[C@H]1O (stereo not given in full) | 224 | 30300 | 
CC(Nc1ncnc2c1ncn2[C@@H]1O[C@H](CO)[C@@H](O)[C@H]1O)[C@@H](O)c1ccccc1 (stereo not given in full) | 2.7 | 390 | Ratio [2]: 144
OC[C@H](Cc1ccccc1)Nc1nc(Cl)nc2c1ncn2C1O[C@H](CO)[C@@H](O)[C@H]1O (stereo not given in full) | 2.41 | 492 | 
OC[C@H]1O[C@@H](n2cnc3c(NN4CCCCC4)ncnc32)[C@H](O)[C@@H]1O | 7.3 |  | Displacement [1]: 29%
OC[C@H]1O[C@@H](n2cnc3c(NN4CCCC4)ncnc32)[C@H](O)[C@@H]1O (stereo in doubt) [listing 1 of 2 here] |  |  | Ratio [2]: 350
OC[C@H]1O[C@@H](n2cnc3c(NN4CCOCC4)nc(Cl)nc32)[C@H](O)[C@@H]1O | 4.89 | 1900 | Ki [3]: 8 nM
OC[C@H]1O[C@@H](n2cnc3c(NN4CCCC4)ncnc32)[C@H](O)[C@@H]1O (stereo in doubt) [listing 2 of 2 here] | 8 | 2800 | 
OC[C@H]1O[C@@H](n2cnc3c(NN4CCC(Sc5ccccc5)CC4)nc(Cl)nc32)[C@H](O)[C@@H]1O |  | 470 | Ratio [2]: 522
OC[C@@H](Cc1ccccc1)Nc1nc(Cl)nc2c1ncn2C1O[C@H](CO)[C@@H](O)[C@H]1O (stereo not given in full) | 452 | 10400 | 
CC(C)C[C@@H](CO)Nc1ncnc2c1ncn2C1O[C@H](CO)[C@@H](O)[C@H]1O (stereo not given in full) | 139 |  | Displacement [4]: < 10%
OC[C@H](Cc1ccccc1)Nc1nc(I)nc2c1ncn2C1O[C@H](CO)[C@@H](O)[C@H]1O (stereo not given in full) | 23 | 1360 | 
OC[C@H]1OC(n2cnc3c(NN4CCCCC4)nc(I)nc32)[C@H](O)[C@@H]1O (stereo not given in full) | 71 | 8630 | 
OC[C@@H](Cc1ccccc1)Nc1nc(I)nc2c1ncn2C1O[C@H](CO)[C@@H](O)[C@H]1O (stereo not given in full) | 989 |  | Displacement [1]: 49%
OC[C@H]1O[C@@H](n2cnc3c(NN4CCCC4)ncnc32)[C@H](O)[C@@H]1O (stereo in doubt; 3) | 8 | 2800 | 
OC[C@H]1OC(n2cnc3c(NN4CCOCC4)nc(I)nc32)[C@H](O)[C@@H]1O (stereo not given in full) | 113 | 19400 | 
